Assay results: US6740635B2, “Antiviral linear polymers” (Biomolecular Research Institute Ltd., priority 1996, dated 2004)
≈ marks a conversion by molar mass, not a printed value. Like-named read-outs stand apart in the source and are kept apart here.

Legend:
[1] = in vitro; details: mouse
[2] = tested on: Cytomegalovirus (Davis strain); assay: HCMV Plaque Reduction; details: Human betaherpesvirus 5, HFF, in Homo sapiens, read-out: EC50, HCMV Plaque Reduction
[3] = tested on: Cytomegalovirus (Davis strain); assay: HCMV CPE Inhibition; details: Human betaherpesvirus 5, HFF, in Homo sapiens, read-out: EC50, HCMV CPE Inhibition
[4] = tested on: MCMV; assay: MCMV Plaque Reduction; details: Mus musculus, MEF, read-out: EC50, MCMV Plaque Reduction
[5] = tested on: HSV-2; assay: HSV-2 Plaque Reduction; details: Human alphaherpesvirus 2, HFF, in Homo sapiens, read-out: EC50, HSV-2 Plaque Reduction
[6] = tested on: VZV; assay: VZV viral count or plaque reduction; assay type: cell-based, Varicella Zoster Virus; details: Human alphaherpesvirus 3
[7] = tested on: HSV-2; assay: HSV-2 CPE Inhibition; details: Human alphaherpesvirus 2, HFF, in Homo sapiens, read-out: EC50, HSV-2 CPE Inhibition
[8] = tested on: HSV-1; assay: HSV-1 CPE Inhibition; details: Human alphaherpesvirus 1, HFF, in Homo sapiens, read-out: EC50, HSV-1 CPE Inhibition
[9] = tested on: HSV-1; assay: HSV-1 Plaque Reduction; details: Human alphaherpesvirus 1, HFF, in Homo sapiens, read-out: EC50, HSV-1 Plaque Reduction
[10] = tested on: HIV 1 IIIB; assay: microbe, parasite or virus in culture; assay type: cell-based, Human Immunodeficiency Virus type 1; details: Human immunodeficiency virus 1, IIIB
[11] = in vitro
[12] = tested on: Flu B; assay: microbe, parasite or virus in culture; assay type: cell-based; details: Influenza B virus, read-out: NR = Neutral Red cell count EC50
[13] = tested on: RSV; Long; assay: RSV Long CPE-inhibition; assay type: cell-based, Respiratory Syncytial Virus
[14] = tested on: RSV; A2; assay: RSV A2 virus yield
[15] = tested on: RSV; A2; assay: RSV A2 viral count or plaque reduction; assay type: cell-based; details: human respiratory syncytial virus, Table 5
[16] = tested on: CMV; assay: microbe, parasite or virus in culture; assay type: cell-based; details: Human betaherpesvirus 5, read-out: CPE-inhibition EC50
[17] = tested on: RSV; A2; assay: RSV A2 Neutral Red cell count; assay type: cell-based; details: human respiratory syncytial virus, read-out: NR = Neutral Red cell count EC50
[18] = tested on: uninfected cells

## Nc1nc(O)c2ncn(COC(CO)CO)c2n1 [Ganciclovir]
[1]
  CC50: 0.5 µg/mL (≈ 1.96 µM)
[2]
  EC50: 0.2 µg/mL (≈ 0.784 µM)
[3]
  EC50: 0.1 µg/mL (≈ 0.392 µM)
[4]
  EC50: 0.6 µg/mL (≈ 2.35 µM)

## Nc1nc2c(ncn2COCCO)c(=O)[nH]1 [Acyclovir]
[5]
  EC50: 0.6 µg/mL (≈ 2.66 µM)
[6]
  EC50: 0.5 µg/mL (≈ 2.22 µM)
[7]
  EC50: 0.2 µg/mL (≈ 0.888 µM)
[8]
  EC50: 0.06 µg/mL (≈ 0.266 µM)
[9]
  EC50: 0.3 µg/mL (≈ 1.33 µM)

## Cc1cn([C@H]2C[C@H](N=[N+]=[N-])[C@@H](CO)O2)c(=O)[nH]c1=O [AZT, Zidovudine]
[10]
  EC50: 0.0001 µg/mL
[10]; read-out: CPE-inhibition EC50
  EC50: 0.37 nM
[11]; CC50, parallel to HIV 1 IIIB test, Table 1, standards
  CC50: 1.17 µg/mL
[11]; CPE-inhibition (CC50), parallel to HIV-1 IIIB test, Table 5, Concentrations μM
  CC50: 4.38 µM

## NC(=O)c1ncn([C@@H]2O[C@H](CO)[C@@H](O)[C@H]2O)n1 [Ribavirin]
[12]
  EC50: 1.8 µg/mL (≈ 7.37 µM)
[13]
  CPE-inhibition EC50: 7 µg/mL
[13]; human respiratory syncytial virus
  EC50: 10 µg/mL (≈ 40.9 µM)
[14]; RSV, A2
  Virus Yield SI = CC50/EC90: 12
[14]; human respiratory syncytial virus, read-out: Virus Yield EC50
  EC50: 6 µg/mL (≈ 24.6 µM)
[14]; human respiratory syncytial virus, read-out: Virus Yield EC90
  EC90: 6 µg/mL (≈ 24.6 µM)
[15]
  EC50: 2 µg/mL (≈ 8.19 µM)
[11]
  CC50: > 100 µg/mL
[11]; CPE-inhibition (CC50), parallel to CMV CPE-inhibition, Table 6
  CC50: 118 µg/mL
[11]; CPE-inhibition (CC50), parallel to RSV A2 CPE-inhibition
  CC50: > 1000 µg/mL
[11]; NR = Neutral Red cell count (CC50)
  CC50: 40 µg/mL
[11]; Viral count or Plaque Reduction (CC50), parallel to RSV A2 viral count, Table 5
  CC50: > 1000 µg/mL
[11]; Virus Yield (CC50), parallel to RSV A2 virus yield test
  CC50: 71 µg/mL
[16]
  EC50: 25 µg/mL (≈ 102 µM)
[17]
  EC50: 1 µg/mL (≈ 4.09 µM)

## poly-L-lysyl [(8-octanamido)-5-acetamido-3,5-dideoxy-2-thio-D-glycero-α-D-galacto-2-nonulopyranosidoic acid]n [BRI 6150]
[18]
  Virus Yield (CC50): > 1000 µg/mL
